Earlier results as cited in patent US4271152A, “Psycho-pharmacological peptides” (Akzo N.V., priority 1979, dated 1981).
“Also recorded” adds a separate entry of the source.

Legend:
[1] = tested on: avoidance behaviour of rats; settings: pole-jumping test; for extinction of the (pole-jumping) avoidance behaviour: background knowledge / earlier Dutch application
[2] = can be antagonized by naloxon

Substance	affinity to the opiate receptor (opiate receptor)	extinction of the (pole-jumping) avoidance behaviour [1]	counteraction by morphine antagonists (naloxon, naltrexon) of the inhibition of extinction [1]	analgetic effect [2]
D-Ala^2 -Met-enkephalin	affinity to the opiate receptor	–	–	–
Leu-enkephaline	affinity to the opiate receptor	–	–	–
Met-enkephalin	affinity to the opiate receptor	inhibit the extinction of the avoidance behaviour	–	–
α-endorphin	affinity to the opiate receptor	inhibit the extinction of the avoidance behaviour; also recorded: delayed the extinction of the avoidance behaviour	–	–
β-endorphin (YGGFMTSEKSQTPLVTLFKNAIIKNAYKKGE; Beta-endorphin; UniProt P01189 237-267, looked up)	–	inhibits the extinction	cannot be counteracted by known morphine antagonists	analgetic effect
γ-endorphin	–	accelerate the extinction of the avoidance behaviour	–	–
